Data set [1] in a line: Stability in human serum at 37° C. (RP-HPLC). The data set is classed as in vitro ADME. Conditions: for half-life at 200 μM: read-out: Stability in human serum t1/2. The method, then:
(§1) The stability of the compound MC526 was studied through reverse phase chromatography in an aqueous medium at pH=1 and in the human serum at 37° C.
In order to assay the stability of the compound of Example 1 in human serum, a 10 mM solution of the compound in DMSO was added to human serum (obtained from human AB plasma, Sigma) preheated to 37° C. The final concentration of the compound was 200 μM. The resulting solution was incubated at 37±0.5° C. and 300 μL aliquots of the reaction mixture were collected and added to an equal amount of acetonitrile containing trifluoroacetic acid 0.1% at suitable time intervals for deproteinising the serum. The sample was sonicated, vortexed and then centrifuged for 10 minutes at 2150 g. The white supernatant was filtered using PTFE 0.45μm (Alltech) filters and analysed through RP-HPLC.
(§2) The analysis in RP-HPLC allows separating and quantifying the initial compounds and those deriving from hydrolysis. Analysis was carried out using a HP1100 (Agilent Technologies, Palo Alto, Calif., USA) chromatography system equipped with a quaternary pump (model G1311A), a degassing membrane (G1379A), a diode-array detector (DAD) (model G1315B) integrated in the HP1100 system. A HP ChemStation (Agilent Technologies) system was used for analyzing data. The analytic column was Nucleosil 100-5 C18 Nautilus (250×4, 6 mm, size of the particles 5 μm) (Macherey-Nagel). The mobile phase used was constituted by acetonitrile/water (55/45) with 0.1% trifluoroacetic acid and the flow rate is of 1.2 ml/min. The injection volume was 20 μl (Rheodyne, Cotati, Calif.). The effluent from column was monitored at 226 nm (for the compound MC526 and for CAS 1609) and at 240 nm (for salicylic acid and the salicylate AT38) against a reference at 600 nm. The quantification of the initial products and those deriving from hydrolysis was carried out by means of calibration curves obtained using standards studied in the same conditions (for concentrations comprised between 5 and 200 μM).

The next data set can be described thus: Solubility in water. The class given is physicochemical.
The nature of data set [2]: Stability in aqueous medium at pH=1 (0.1 M HCl, 37° C., RP-HPLC). The note with it: compound unaltered after 1 hour of incubation, 100 μM. The class given is physicochemical. The method, then: as §1
In particular, a 10 mM solution of the compound of Example 1 in DMSO was added to a 0.1 M solution of HCl preheated to 37° C. The final concentration of the compound was 100 μM. The resulting solution was maintained at 37±0.5° C. and 20 μl aliquots of the reaction solution were analysed by means of RP-HPLC at suitable time intervals.
as §2

For data set [3], the system named is splenocytes of the BALB/C from the control animal group and from the animals carrying colon carcinoma26 (C26GM). Description: Proliferation assay (3H-TdR) of anti-CD3/anti-CD28 stimulated splenocytes. The class given is cell-based, mice. Conditions: FIG. 7. The method, then: The mice BALB/c were inoculated s.c. in the inguinal cavity with 0.5*10^6 cells C26GM. The mice were sacrificed after 9 days and the splenocytes were used for in vitro assays.
The splenocytes of the BALB/C from the control animal group and from the animals carrying colon carcinoma26 (C26GM) are plated to the concentration of 6*10^5 cells per well and stimulated with 3 μg/ml anti-CD3 (2C11, ATCC) and 2 μg/ml of anti-CD28 (clone 37.5, ATCC) both with and without scalar dilutions of the compounds subject of the invention. After 3 days of incubation, 1 μCi/well (1 Cl=37 GBq) of ^3H-TdR (PerkinElmer) is added to the culture for 18 hours and the addition thereof is monitored by scintillation.
In particular, the controls (Unst) refer to cells not stimulated with antiCD3 and antiCD28 and the control (St) on stimulated cells but drug-free. It can be observed that the doses corresponding to 200 μM and 100 μM are toxic for the cells, in that the proliferation is not observed even on healthy splenocytes.

Results on four compounds are retold here after patent publication US8946271B2, “Water soluble furoxan derivatives having antitumor activity” (Humanitas Mirasole S.p.A., priority 2010, dated 2015).

Counter-ions that a name gives are not always drawn. A value given as a limit tells only on which side of the number the result lay.

With `NC(=O)c1c(COC(=O)c2ccccc2O)no[n+]1[O-]` [AT38, [3-(aminocarbonyl)furoxan-4-yl]methyl salicylate, reference compound], in data set [1] (release of CAS 1609 and salicylic acid), the “Hydrolysis of the salicylate derivative in human serum” value was “slowly releases the CAS 1609 compound and salicylic acid”. In “Solubility in water”, this compound displayed a solubility of under 1 µg/mL.
For the compound `NCCC(=O)Oc1ccccc1C(=O)OCc1no[n+]([O-])c1C(N)=O` [MC526, ([3-(aminocarbonyl)furoxan-4-yl]methyl-2-(β-alanyloxy)benzoate)hydrochloride], in data set [2], the “Stability in buffer at pH = 1 after 1 hour” value (shortened to “Stability in buffer”) is listed as 60%. The half-life at 200 μM in data set [1] was determined as 1.4 min. Moreover, the solubility in “Solubility in water” stood at 10000 µg/mL. For the same compound, the Proliferation assay result in data set [3] (12.5 μM) is “efficient and non-toxic”; in data set [3] (25 μM), “efficient and non-toxic”; in data set [3] (100 μM, healthy splenocytes) it was “toxic”; in data set [3] (200 μM, healthy splenocytes), “toxic”. The “Proliferation assay result on healthy cells” value in data set [3] (50 μM, healthy cells) is reported as “partly toxic”.
As for `NCCCC(=O)Oc1ccccc1C(=O)OCc1no[n+]([O-])c1C(N)=O` [MC596, ([3-(aminocarbonyl)furoxan-4-yl]methyl-2-(4-aminobutanoyloxy)benzoate hydrochloride)], the “Stability in buffer” value in data set [2] is 90%. For the same compound, the half-life at 200 μM in data set [1] amounted to 1.6 min. Moreover, in the data set “Solubility in water”, the solubility is 2500 µg/mL.
On to `CC(N)C(=O)Oc1ccccc1C(=O)OCc1no[n+]([O-])c1C(N)=O` (stereo not shown) [MC598, ([3-(aminocarbonyl)furoxan-4-yl]methyl-2-(alanyloxy)benzoate hydrochloride)], for which the “Stability in buffer” value in data set [2] was 80%. In data set [1], the half-life at 200 μM stood at 1.3 min. This compound returned a solubility in “Solubility in water” of 10000 µg/mL.
